Results taken from US20210069295A1, “GALECTINS CONTROL MTOR IN RESPONSE TO ENDOMEMBRANE DAMAGE AND PROVIDE A MECHANISM AND TARGET FOR THE TREATMENT OF AUTOPHAGY-RELATED DISEASES” (STC. UNM, priority 2017, published 2021).

What was measured:
Gal8 and Gal9 = experiment: Galectin puncta formation by high-content microscopy in HeLa cells; format: cell-based; conditions: HeLa cells overexpressing GFP-Gal8 or GFP-Gal9, 100 μM, 1 h full medium
Method: (A) Analysis of the puncta formation of galectins in response to GPN. HeLa cells overexpressing YFP-fused with the indicated galectins were treated with 100 μM GPN or without (Ctrl) in full medium for 1 h and galectin puncta were quantified by HC. […] White masks, algorithm defined cell boundaries (primary objects); green masks, computer-identified galectins puncta (target objects). Data, means±SEM, n≥3 independent experiments (500 primary objects counted per well; ≥5 wells/sample per each experiment); *p<0.05, **p<0.01, † p≥0.05, ANOVA. (B) Immunoprecipitation analysis of the interactions between galectins and mTOR or RagA GTPase. HEK293T cells overexpressing FLAG-tagged galectins were subjected to anti-FLAG immunoprecipitation followed by immunoblotting for endogenous mTOR or RagA. (C) Immunoprecipitation analysis of interactions between Gal8 and mTOR protein complexes in response to GPN treatment. […] Biotinylated proteins from HEK293T cell expressing APEX2-vector or APEX2-Gal8, after GPN and biotin phenol (BP) treatment were affinity-enriched by binding to streptavidin-beads, and samples were analyzed by immunoblotting analysis for endogenous RagA, p14, mTOR or Raptor. […]
(A) HC analysis of the puncta of galectins in response to chloroquine, Bafilomycin A1 and GPN. HeLa cells overexpressing GFP-Gal8 or GFP-Gal9 were treated with 100 μM chloroquine (CQ), […] (BAF) or 100 μM GPN in full medium for 1 h, and the puncta of GFP-Gal8 or GFP-Gal9 were quantified by HC. […] Data, means±SEM, n≥3 independent experiments (500 primary objects counted per well; ≥5 wells/sample per each experiment), † p≥0.05, **p<0.01, ANOVA. […] HeLa cells expressing GFP-Gal8 were treated with 100 μM GPN in full medium for 1 h, and the overlap between GFP-Gal8 and LAMP2 were quantified by HC. […] Data, means±SEM, n≥3 independent experiments (500 primary objects counted per well; ≥5 wells/sample per each experiment), **p<0.01, ANOVA. […]

AMPK = AMPK activation by immunoblotting of phosphorylated AMPKα, ACC and ULK1 in HEK293A cells; format: cell-based; conditions: Gal9 KO HEK293A, 1 μM oligomycin 1 h
mTOR, Raptor, RagA, p14 = experiment: APEX2 proximity biotinylation with streptavidin enrichment and immunoblotting in HEK293T cells; format: cell-based; conditions: APEX2-galectin fusions
Method: (A) Analysis of the puncta formation of galectins in response to GPN. HeLa cells overexpressing YFP-fused with the indicated galectins were treated with 100 μM GPN or without (Ctrl) in full medium for 1 h and galectin puncta were quantified by HC. […] White masks, algorithm defined cell boundaries (primary objects); green masks, computer-identified galectins puncta (target objects). Data, means±SEM, n≥3 independent experiments (500 primary objects counted per well; ≥5 wells/sample per each experiment); *p<0.05, **p<0.01, † p≥0.05, ANOVA. (B) Immunoprecipitation analysis of the interactions between galectins and mTOR or RagA GTPase. HEK293T cells overexpressing FLAG-tagged galectins were subjected to anti-FLAG immunoprecipitation followed by immunoblotting for endogenous mTOR or RagA. (C) Immunoprecipitation analysis of interactions between Gal8 and mTOR protein complexes in response to GPN treatment. THP-1 cells not treated or treated with 100 μM GPN in full medium for 1 h were subjected to immunoprecipitation with anti-Gal8 antibody, followed by immunoblotting for endogenous RagA, p14, mTOR or Raptor. (D) Analysis of the proximity of Gal8 to mTOR and other proteins in mTOR complexes in response to GPN. Biotinylated proteins from HEK293T cell expressing APEX2-vector or APEX2-Gal8, after GPN and biotin phenol (BP) treatment were affinity-enriched by binding to streptavidin-beads, and samples were analyzed by immunoblotting analysis for endogenous RagA, p14, mTOR or Raptor. Data, means±SEM, (n=3), **p<0.01, ANOVA. (E) Immunoprecipitation analysis of the interactions between Gal8 and RagA GTPase and its mutants. Lysates of HEK293T cells overexpressing FLAG-Gal8 and HA-tagged RagA proteins (RagAWT, RagAT21L or RagAQ66L) were subjected to anti-FLAG immunoprecipitation, followed by immunoblotting for HA-tagged RagA proteins. (F) Immunoprecipitation analysis of the interactions between Gal8 and RagC GTPase and its mutants. HEK293T cells overexpressing FLAG-Gal8 and HA-tagged RagC proteins (RagCWT, RagCS75L or RagCQ120L) lysates were subjected to anti-FLAG immunoprecipitation, followed by immunoblotting for HA-tagged RagC proteins.
HEK293T cells transfected with pJJiaDEST-APEX2 or pJJiaDEST-APEX2-Gal8 were incubated with 100 μM GPN (Cayman Chemicals) in full medium for 1 h (confluence of cells remained at 70-80%). Cells were next incubated in 500 μM biotin-phenol (AdipoGen) in full medium for the last 30 min of GPN incubation. A 1 min pulse with 1 mM H2O2 at room temperature was stopped with quenching buffer (10 mM sodium ascorbate, 10 mM sodium azide and 5 mM Trolox in Dulbecco's Phosphate Buffered Saline (DPBS)). All samples were washed twice with quenching buffer, and twice with DPBS.
For immunoblotting analysis, cell pellets were lysed with 500 μL ice-cold RIPA lysis buffer (ThermoFisher Scientific) with protease inhibitor cocktail (Roche), 1 mM PMSF (sigma), 10 mM sodium ascorbate, 10 mM sodium azide and 5 mM Trolox, gently pipetted and then the incubated for 30 min. The lysates were clarified by centrifugation at 13,000 rpm for 5 min, followed by measuring protein concentrations using a Pierce BCA Protein Assay kit, with freshly made bovine serum albumin (BSA) solutions as standards. Streptavidin-coated magnetic beads (ThermoFisher Scientific) were washed with RIPA lysis buffer. 3 mg of each sample was mixed with 100 μL of streptavidin beads. […] 15 μL of each sample was separated by SDS-PAGE and analyzed by Western blot using indicated antibodies.

AMPKα = experiment: Co-IP of FLAG-tagged galectins with endogenous AMPKα in HEK293T cells; format: binding; conditions: HEK293T overexpressing FLAG-tagged galectins
TAK1 = target: T1, TAK1 (Homo sapiens, UniProt O43318); experiment: Co-IP of FLAG-tagged galectins with GFP-tagged TAK1 in HEK293T cells; format: binding; conditions: HEK293T overexpressing FLAG-tagged galectins and GFP-TAK1
T1 sequence (O43318 1-606): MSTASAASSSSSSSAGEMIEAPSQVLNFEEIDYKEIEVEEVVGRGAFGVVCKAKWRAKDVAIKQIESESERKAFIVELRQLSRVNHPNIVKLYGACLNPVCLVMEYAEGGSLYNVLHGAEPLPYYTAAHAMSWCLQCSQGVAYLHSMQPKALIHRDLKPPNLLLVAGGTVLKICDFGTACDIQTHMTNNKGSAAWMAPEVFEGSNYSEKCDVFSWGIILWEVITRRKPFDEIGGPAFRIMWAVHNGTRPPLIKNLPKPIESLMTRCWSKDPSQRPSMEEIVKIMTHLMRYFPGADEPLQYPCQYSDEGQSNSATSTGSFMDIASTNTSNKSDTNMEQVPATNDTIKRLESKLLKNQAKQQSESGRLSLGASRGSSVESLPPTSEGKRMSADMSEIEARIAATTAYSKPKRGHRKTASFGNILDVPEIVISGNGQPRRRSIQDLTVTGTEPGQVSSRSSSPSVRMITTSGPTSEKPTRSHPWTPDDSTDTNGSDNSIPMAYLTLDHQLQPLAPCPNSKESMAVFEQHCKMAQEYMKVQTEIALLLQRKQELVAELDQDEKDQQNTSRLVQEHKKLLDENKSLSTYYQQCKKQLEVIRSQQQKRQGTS
Method: (A) Analysis of the activation of AMPK in wildtype (WT) and the complementation of Gal9 in Gal9-knockout (Gal9KO) HEK293A cells treated with 100 μM GPN in full medium for 1 h. AMPK activity was monitored by immunoblotting analysis of AMPKα (T172) and acetyl-CoA carboxylase (ACC, S79) phosphorylation (phosphorylated AMPKα (T172) and ACC (S79) relative to total AMPKα and ACC respectively). (B) HEK293T cells transfected with scrambled siRNA (Scr) or Gal9 siRNA (Gal9KD) were treated with 2 mM LLOMe in full medium for 1 h, and the cell lysates were analyzed for phosphorylation of indicated proteins. Data, means±SEM, n=3, *p<0.05, ANOVA. (C) HEK293T cells overexpressing FLAG-Gal9 were treated with 2 mM LLOMe in full medium for 1 h. Cell lysates were analyzed for the indicated proteins. Data, means±SEM, n=3, *p<0.05, ANOVA. (D) Immunoprecipitation analysis of the interactions between galectins and TAK1. HEK293T cells overexpressing FLAG-tagged galectins and GFP-tagged TAK1 were subjected to anti-FLAG immunoprecipitation followed by immunoblotting for GFP-tagged TAK1. (E) Schematic diagram of Gal9 domains and deletion constructs. (F) HEK293T cells overexpressing FLAG-tagged full-length or truncated Gal9 and GFPAMPK were subjected to anti-FLAG immunoprecipitation, followed by immunoblotting for GFP-AMPK. (G) HEK293T cells overexpressing FLAG-tagged full-length or truncated Gal9 and GFP-TAK1 were subjected to anti-FLAG immunoprecipitation, followed by immunoblotting for GFP-TAK1. (H) Analysis of the activation of AMPK in HEK293T cells subjected to knockdowns as indicated treated with 100 μM GPN in full medium for 1 h. AMPK activity was monitored by immunoblotting analysis of AMPKα (T172) and acetyl-CoA carboxylase (ACC, S79) phosphorylation (phosphorylated AMPKα (T172) and ACC (S79) relative to total AMPKα and ACC respectively). Cells transfected with scrambled siRNA were as control (Scr). […]

## CO/C1=C\C(C)=C\[C@@H](C)[C@@H](O)[C@@H](C)C/C(C)=C/C=C/[C@H](OC)[C@@H]([C@@H](C)[C@@H](O)[C@H](C)[C@@]2(O)C[C@@H](O)[C@H](C)[C@@H](C(C)C)O2)OC1=O [Bafilomycin A 1, Bafilomycin A1]
Gal8 and Gal9
  Gal8 and Gal9 puncta formation: not upon treatment

## CCN(CC)CCCC(C)Nc1ccnc2cc(Cl)ccc12 (stereo not drawn) [chloroquine]
Gal8 and Gal9
  Gal8 and Gal9 puncta formation: not upon treatment

## CC[C@H]1/C=C/C=C/C[C@@H](C)[C@H](O)[C@@](C)(O)C(=O)[C@@H](C)[C@H](O)[C@@H](C)C(=O)[C@@H](C)[C@H](O)[C@@H](C)/C=C/C(=O)O[C@@H]2[C@H](C)[C@H](CC1)O[C@]1(CC[C@H](C)[C@H](C[C@@H](C)O)O1)[C@H]2C [oligomycin]
AMPK
  AMPK phosphorylation in Gal9 KO cells: increased AMPK phosphorylation

## Gal3: cytosolic lectin, galectin-3, used as comparator
mTOR, Raptor, RagA, p14
  mTOR, Raptor and RagA found in the proximity of the galectin: not in the proximity
AMPKα
  AMPKα in complexes (co-IP) with galectin: not detected
TAK1
  interaction with TAK1: not
